Assay results taken from patent publication US5532267A, “Amidinonaphthyl furancarboxylate derivatives and acid addition salts therof” (Torii & Co., Ltd., priority 1992, dated 1996).
Where a name gives a salt, the structure may show the parent alone. Read-outs that look alike come from different tables or passages of the source.

How the values were obtained:
Masugi's nephritis = assay: Effectiveness in treating Masugi's nephritis (experimental glomerulonephritis), protein in urine; format: in vivo, rat
Description: […] […] As the index to effectiveness, the protein concentration in urine was determined. That is, when inflammation develops in the kidney, it causes damage to renal tubules, etc., and a resultant increase in protein concentration in urine.

C1s = target: T1, C1s (Homo sapiens, UniProt P09871); assay: anti-complement (anti-C1 esterase) activity, C1s hydrolysis of ATEE (acetyltyrosine ethyl ester); format: biochemical; conditions: hydrolysis of ATEE; read-out: Cls: molar concentration inhibiting 50% of C1s activity (IC50)
T1 sequence (P09871 16-688): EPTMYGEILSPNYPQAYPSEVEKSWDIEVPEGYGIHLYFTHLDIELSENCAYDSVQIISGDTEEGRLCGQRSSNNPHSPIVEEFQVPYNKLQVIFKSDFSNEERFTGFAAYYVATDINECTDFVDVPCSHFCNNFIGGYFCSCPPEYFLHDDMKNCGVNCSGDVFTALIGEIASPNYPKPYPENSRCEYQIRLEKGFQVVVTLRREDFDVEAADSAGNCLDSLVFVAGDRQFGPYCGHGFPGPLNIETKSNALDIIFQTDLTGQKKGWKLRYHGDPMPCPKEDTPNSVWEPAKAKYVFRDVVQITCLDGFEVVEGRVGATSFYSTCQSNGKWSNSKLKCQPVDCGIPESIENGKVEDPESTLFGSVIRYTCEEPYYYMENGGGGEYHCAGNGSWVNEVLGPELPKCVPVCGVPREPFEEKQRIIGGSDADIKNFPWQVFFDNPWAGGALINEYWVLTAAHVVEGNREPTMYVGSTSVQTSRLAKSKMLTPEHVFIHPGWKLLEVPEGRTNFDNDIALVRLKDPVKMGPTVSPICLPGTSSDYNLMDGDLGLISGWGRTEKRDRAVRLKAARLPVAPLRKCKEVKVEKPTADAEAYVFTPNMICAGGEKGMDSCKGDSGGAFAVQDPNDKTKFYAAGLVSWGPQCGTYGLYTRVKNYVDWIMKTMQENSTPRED
Description: The anti-C1 esterase (C1r, C1s) activity was determined according to the method of Okamura et al. (Biochem. Biophys. Acta (1973), volume 295, pages 252-257). […] The values for C1s represent molar concentrations (IC50) of test compounds which inhibit 50% of the activity of C1s to hydrolyze ATEE (acetyltyrosine ethyl ester).

trypsin = target: T2, trypsin (Bos taurus, UniProt P00760); assay: anti-trypsin activity, hydrolysis of TAME (tosylarginine methyl ester); format: biochemical; conditions: hydrolysis of TAME; read-out: Try: molar concentration inhibiting 50% of enzyme activity (IC50)
T2 sequence (P00760 24-246): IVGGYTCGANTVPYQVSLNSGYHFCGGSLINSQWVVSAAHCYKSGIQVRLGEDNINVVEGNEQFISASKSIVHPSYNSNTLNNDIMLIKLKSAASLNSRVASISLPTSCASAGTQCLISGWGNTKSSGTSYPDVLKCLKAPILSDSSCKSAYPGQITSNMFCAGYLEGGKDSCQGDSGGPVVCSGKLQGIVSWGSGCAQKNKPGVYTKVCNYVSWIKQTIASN

kallikrein = assay: anti-kallikrein activity, hydrolysis of TAME (tosylarginine methyl ester); format: biochemical; conditions: hydrolysis of TAME; read-out: Kal: molar concentration inhibiting 50% of enzyme activity (IC50)
Description: (§1) The values in Table 1 represent molar concentrations (IC50) of test compounds which inhibit 50% of the activity of each enzyme to hydrolyze TAME (tosylarginine methyl ester). The anti-trypsin, anti-plasmin, anti-kallikrein and anti-thrombin activities were determined according to the method of Muramatsu et al. (J. Biochem. (1965), volume 58, page 214).

thrombin = thrombin (Homo sapiens, UniProt P00734); assay: anti-thrombin activity, hydrolysis of TAME (tosylarginine methyl ester); format: biochemical; conditions: hydrolysis of TAME; read-out: Thr: molar concentration inhibiting 50% of enzyme activity (IC50)
Description: as §1

plasmin = plasmin (Homo sapiens, UniProt P00747); assay: anti-plasmin activity, hydrolysis of TAME (tosylarginine methyl ester); format: biochemical; conditions: hydrolysis of TAME; read-out: Pla: molar concentration inhibiting 50% of enzyme activity (IC50)
plasmin, sequence (P00747 581-810 limits assumed, species assumed): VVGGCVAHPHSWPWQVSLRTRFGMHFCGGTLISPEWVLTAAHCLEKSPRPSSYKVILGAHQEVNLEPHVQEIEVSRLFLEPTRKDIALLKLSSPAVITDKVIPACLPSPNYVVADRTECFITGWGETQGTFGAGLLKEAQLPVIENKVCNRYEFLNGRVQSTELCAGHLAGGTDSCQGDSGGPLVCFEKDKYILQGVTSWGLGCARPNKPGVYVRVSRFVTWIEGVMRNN
plasmin, sequence (P00747 97-580 partner limits assumed, species assumed): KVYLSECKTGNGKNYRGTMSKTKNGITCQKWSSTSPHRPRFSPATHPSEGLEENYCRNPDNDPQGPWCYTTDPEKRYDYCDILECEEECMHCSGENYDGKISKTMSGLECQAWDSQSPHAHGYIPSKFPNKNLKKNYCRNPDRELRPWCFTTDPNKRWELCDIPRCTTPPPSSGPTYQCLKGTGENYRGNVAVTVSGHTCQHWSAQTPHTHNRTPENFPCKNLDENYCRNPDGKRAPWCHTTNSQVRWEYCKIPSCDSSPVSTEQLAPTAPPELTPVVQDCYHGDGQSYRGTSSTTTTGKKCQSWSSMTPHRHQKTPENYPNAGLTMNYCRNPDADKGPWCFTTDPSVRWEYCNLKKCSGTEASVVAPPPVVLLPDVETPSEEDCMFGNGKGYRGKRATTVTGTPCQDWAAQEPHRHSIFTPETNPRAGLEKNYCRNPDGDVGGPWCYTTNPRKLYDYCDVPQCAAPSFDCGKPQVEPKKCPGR
Description: as §1

C1r = target: T3, C1r (Homo sapiens, UniProt P00736); assay: anti-complement (anti-C1 esterase) activity, C1r hydrolysis of AAME (acetyl-arginine methyl ester); format: biochemical
T3 sequence (P00736 18-705): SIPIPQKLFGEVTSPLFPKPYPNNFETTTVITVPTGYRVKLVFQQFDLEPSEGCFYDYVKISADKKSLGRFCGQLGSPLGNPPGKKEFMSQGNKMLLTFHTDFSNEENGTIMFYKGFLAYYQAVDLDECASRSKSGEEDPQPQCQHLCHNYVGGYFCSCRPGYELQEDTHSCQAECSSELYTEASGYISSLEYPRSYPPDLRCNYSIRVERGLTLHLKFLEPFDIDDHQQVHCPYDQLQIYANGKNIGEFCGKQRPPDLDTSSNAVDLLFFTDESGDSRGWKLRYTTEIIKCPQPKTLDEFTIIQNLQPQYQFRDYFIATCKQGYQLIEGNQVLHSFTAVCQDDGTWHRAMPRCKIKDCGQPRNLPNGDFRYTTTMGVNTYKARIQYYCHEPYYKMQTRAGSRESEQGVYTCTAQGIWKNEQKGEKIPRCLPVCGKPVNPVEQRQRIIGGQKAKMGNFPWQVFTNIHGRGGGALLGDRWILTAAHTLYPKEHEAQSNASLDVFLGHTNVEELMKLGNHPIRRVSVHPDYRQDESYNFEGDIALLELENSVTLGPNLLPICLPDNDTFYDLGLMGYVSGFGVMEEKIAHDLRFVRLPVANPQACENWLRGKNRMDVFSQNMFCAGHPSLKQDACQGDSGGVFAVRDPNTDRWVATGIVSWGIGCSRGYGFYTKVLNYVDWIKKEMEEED

adjuvant arthritis = assay: Effectiveness in treating adjuvant arthritis (Mycobacterium butyricum); format: in vivo, rat; conditions: 30 mg/kg, oral, day -1 to day 13
Description: Adjuvant arthritis is known as a representative model of autoimmune diseases and is a effective means of testing agents to treat human rheumatoid arthritis (Encyclopedia of Immunology, edited by I. M. Roitt, Academic Press, 1992; Otterness, I. G., et al., J. of Rheumatology (1991), volume 18, pages 505-511),
The method of experiment was as follows. A 0.6% Mycobacterium butyricum liquid paraffin suspension, 0.1 ml/animal, was administered to a rat at a subcutaneous site of left hind-limb sole to induce adjuvant arthritis. The present compound was orally administered (in the form of a suspension in water) consecutively from 1 day before the induction to 13 days after the induction. The efficacy of the present compound on adjuvant arthritis was evaluated by examining the swelling accompanied by red spots and subcutaneous knots at the fore-limb, hind-limb, tail, ear and periphery of eye with the lapse of days (on the 8th, 10th, 12th, 14th, 16th and 18th days after adjuvant administration), expressing the results in terms of scores according to the method of F. D. Wood et al. (Int. Arch. Allergy (1969), volume 35, pages 456-467), and calculating the percentage inhibition relative to the control group. Thus, the higher value of percentage inhibition indicates the higher effectiveness.

[1] = 30 mg/kg, oral, mean ± standard deviation, 7 animals, control group 40.8 ± 15.1
[2] = 100 mg/kg, oral, mean ± standard deviation, 7 animals, control group 40.8 ± 15.1
[3] = hydrolysis of AAME, read-out: Clr: molar concentration inhibiting 50% of C1r activity (IC50)

| Compound | Protein concentration in urine (Masugi's nephritis; [1]) [mg/mL] | IC50 (C1s) [nM] | IC50 (trypsin) [nM] | IC50 (kallikrein) [nM] | IC50 (thrombin) [nM] | IC50 (plasmin) [nM] | IC50 (C1r; [3]) [nM] | further results |
| --- | --- | --- | --- | --- | --- | --- | --- | --- |
| Cl.N=C(N)c1ccc2cc(OC(=O)c3ccc(CNC(=O)CCCCC(=O)O)o3)ccc2c1 [Example 23, 6-Amidino-2-naphthyl 5-(5-carboxyvalerylaminomethyl)furan-2-carboxylate hydrochloride] | 24.2 ± 18.8 |  |  |  |  |  |  |  |
| N=C(N)c1ccc2cc(OC(=O)c3ccc(CNC(=O)CCC(N)=O)o3)ccc2c1 [Example 32, 6-Amidino-2-naphthyl 5-(3-carbamoylpropionylaminomethyl)furan-2-carboxylatehydrochloride] | 22.8 ± 13.9 |  |  |  |  |  |  |  |
| N=C(N)c1ccc2cc(OC(=O)c3ccc(CN)o3)ccc2c1 [Known compd. II, reference compound] |  |  |  |  |  |  |  | Protein concentration in urine (Masugi's nephritis; [2]): 22.1 ± 11.4 mg/mL |
| Cl.N=C(N)c1ccc2cc(OC(=O)c3ccc(CNC(=O)/C=C/C(=O)O)o3)ccc2c1 [Example 13, 6-Amidino-2-naphthyl 5-(trans-2-carboxyvinyl)carbonylaminomethylfuran-2-carboxylate hydrochloride] | 24.2 ± 16.8 |  |  |  |  |  |  |  |
| N=C(N)c1ccc2cc(OC(=O)c3ccc(CNC(=O)CC4(CC(=O)O)CCCC4)o3)ccc2c1 [Example 44, hydrochloride] | 20.0 ± 12.9 |  |  |  |  |  |  |  |
| Cl.N=C(N)c1ccc2cc(OC(=O)c3ccc(CNC(=O)CCCCCCCC(=O)O)o3)ccc2c1 [Example 26, 6-Amidino-2-naphthyl 5-(8-carboxyoctanoylaminomethyl)furan-2-carboxylate hydrochloride] | 25.0 ± 15.4 |  |  |  |  |  |  |  |
| N=C(N)c1ccc2cc(OC(=O)c3ccc(CNC(=O)c4ccc(NC5=NCCN5)cc4)o3)ccc2c1 [Known compd. I, reference compound] |  |  |  |  |  |  |  | Protein concentration in urine (Masugi's nephritis; [2]): 24.4 ± 11.9 mg/mL |
| Cl.N=C(N)c1ccc2cc(OC(=O)c3ccc(CNC(=O)Cc4ccc(C(=O)O)cc4)o3)ccc2c1 [Example 6, 6-Amidino-2-naphthyl 5-(4-carboxyphenylacetylaminomethyl)furan-2-carboxylate hydrochloride] | 19.7 ± 11.1 | 270 | 390 | 830 | 10000 | 260 | 23 |  |
| COC(=O)CCC(=O)NCc1ccc(C(=O)Oc2ccc3cc(C(=N)N)ccc3c2)o1.Cl [Example 34, 6-Amidino-2-naphthyl 5-(3-methoxycarbonylpropionylaminomethyl)furan-2-carboxylate hydrochloride] | 29.3 ± 18.8 | 170 | 270 | 130 | 89 | 130 | 330 |  |
| Cl.N=C(N)c1ccc2cc(OC(=O)c3ccc(CNC(=O)[C@H]4CC[C@H](C(=O)O)CC4)o3)ccc2c1 [Example 11, 6-Amidino-2-naphthyl 5-(trans-4-carboxy-1-cyclohexanoylaminomethyl)furan-2-carboxylate hydrochloride] |  | 280 | 660 | 870 | 1200 | 400 |  | Protein concentration in urine (Masugi's nephritis; po, 30 mg/kg): 33.6 ± 17.8 mg/mL; IC50 (C1r): 1200 nM |
| Cl.N=C(N)c1ccc2cc(OC(=O)c3ccc(CNC(=O)CCC(=O)NCC(=O)O)o3)ccc2c1 [Example 36, 6-Amidino-2-naphthyl 5-(3-carboxymethylcarbamoylpropionylaminomethyl)furan-2-carboxylate hydrochloride] | 26.2 ± 14.7 |  |  |  |  |  |  |  |
| CC(C)(C)OC(=O)CCCC(=O)NCc1ccc(C(=O)Oc2ccc3cc(C(=N)N)ccc3c2)o1 [Example 19, 6-Amidino-2-naphthyl 5-(4-t-butoxycarbonyl-butyrylaminomethyl)furan-2-carboxylate hydrochloride] |  | 720 | 250 | 250 | 360 | 170 | 1800 |  |
| CCC(C(=O)O)C(=O)NCc1ccc(C(=O)Oc2ccc3cc(C(=N)N)ccc3c2)o1.Cl (centres unmarked) [Example 38, 6-Amidino-2-naphthyl 5-(2-carboxybutyrylaminomethyl)furan-2-carboxylate hydrochloride] | 17.8 ± 12.4 |  |  |  |  |  |  |  |
| CC(CC(=O)O)CC(=O)NCc1ccc(C(=O)Oc2ccc3cc(C(=N)N)ccc3c2)o1.Cl (centres unmarked) [Example 43, 6-Amidino-2-naphthyl 5-(4-carboxy-3-methylbutyrylaminomethyl)furan-2-carboxylate hydrochloride] | 21.8 ± 10.3 |  |  |  |  |  |  |  |
| CN(C)C(=O)COC(=O)CCC(=O)NCc1ccc(C(=O)Oc2ccc3cc(C(=N)N)ccc3c2)o1 [Example 31, 6-Amidino-2-naphthyl 5-(3-N,N-dimethylcarbamoylmethoxycarbonylpropionylaminomethyl)furan-2-carboxylate hydrochloride] |  | 450 | 600 | 170 | 150 | 160 | 290 | Percentage inhibition (arthritis score) (adjuvant arthritis): 67.7% |
| N=C(N)c1ccc2cc(OC(=O)c3ccc(CNC(=O)/C=C\C(=O)O)o3)ccc2c1 [Example 12, 6-Amidino-2-naphthyl 5-(cis-2-carboxyvinyl)carbonylaminomethylfuran-2-carboxylate methanesulfonate] |  | 210 | 480 | 770 | 600 | 270 | 2800 |  |
